Test results as given in the NIST ThermoML archive (doi:10.1016/j.jct.2007.08.002).
Where “and” joins values, the source holds several entries; their conditions need not be identical. Equal entries are not always repeated. ± gives the expanded uncertainty stated by the source.

Assay: molar heat capacity at saturation pressure

Question: With `NC12CC3CC(CC(C3)C1)C2` [tricyclo(3.3.1.1:3,7)decan-1-amine] as the molecule, how does the molar heat capacity (196.06 K, Crystal 3, Small (less than 1 g) adiabatic calorimetry) read?
Answer: 135.44 ± 0.75 J/K/mol

Question: What about the molar heat capacity (197.25 K, Crystal 3, Small (less than 1 g) adiabatic calorimetry) of the same molecule?
Answer: 136.86 ± 0.75 J/K/mol

Question: And the molar heat capacity (197.97 K, Crystal 3, Small (less than 1 g) adiabatic calorimetry)?
Answer: 137.6 ± 0.75 J/K/mol

Question: What about the molar heat capacity (199.25 K, Crystal 3, Small (less than 1 g) adiabatic calorimetry) of the same molecule?
Answer: 139.1 ± 0.75 J/K/mol

Question: What about the molar heat capacity (199.88 K, Crystal 3, Small (less than 1 g) adiabatic calorimetry) of the same molecule?
Answer: 139.77 ± 0.75 J/K/mol

Question: What about the molar heat capacity (200.91 K, Crystal 3, Small (less than 1 g) adiabatic calorimetry) of the same molecule?
Answer: 140.93 ± 0.75 J/K/mol

Question: What about the molar heat capacity (201.79 K, Crystal 3, Small (less than 1 g) adiabatic calorimetry) of the same molecule?
Answer: 142.09 ± 0.75 J/K/mol

Question: And the molar heat capacity (202.24 K, Crystal 3, Small (less than 1 g) adiabatic calorimetry)?
Answer: 142.51 ± 0.75 J/K/mol

Question: And the molar heat capacity (203.56 K, Crystal 3, Small (less than 1 g) adiabatic calorimetry)?
Answer: 144.09 ± 0.75 J/K/mol

Question: And the molar heat capacity (204.88 K, Crystal 3, Small (less than 1 g) adiabatic calorimetry)?
Answer: 145.75 ± 0.75 J/K/mol

Question: And the molar heat capacity (206.19 K, Crystal 3, Small (less than 1 g) adiabatic calorimetry)?
Answer: 147.58 ± 0.83 J/K/mol

Question: What about the molar heat capacity (207.51 K, Crystal 3, Small (less than 1 g) adiabatic calorimetry) of the same molecule?
Answer: 149.24 ± 0.83 J/K/mol

Question: And the molar heat capacity (207.53 K, Crystal 3, Small (less than 1 g) adiabatic calorimetry)?
Answer: 149.33 ± 0.83 J/K/mol

Question: What about the molar heat capacity (208.81 K, Crystal 3, Small (less than 1 g) adiabatic calorimetry) of the same molecule?
Answer: 151.16 ± 0.83 J/K/mol

Question: And the molar heat capacity (209.45 K, Crystal 3, Small (less than 1 g) adiabatic calorimetry)?
Answer: 152.07 ± 0.83 J/K/mol

Question: And the molar heat capacity (210.11 K, Crystal 3, Small (less than 1 g) adiabatic calorimetry)?
Answer: 152.9 ± 0.83 J/K/mol

Question: What about the molar heat capacity (211.36 K, Crystal 3, Small (less than 1 g) adiabatic calorimetry) of the same molecule?
Answer: 154.9 ± 0.83 J/K/mol

Question: And the molar heat capacity (211.41 K, Crystal 3, Small (less than 1 g) adiabatic calorimetry)?
Answer: 154.9 ± 0.83 J/K/mol

Question: And the molar heat capacity (212.7 K, Crystal 3, Small (less than 1 g) adiabatic calorimetry)?
Answer: 156.73 ± 0.83 J/K/mol

Question: And the molar heat capacity (213.28 K, Crystal 3, Small (less than 1 g) adiabatic calorimetry)?
Answer: 157.97 ± 0.83 J/K/mol

Question: What about the molar heat capacity (213.99 K, Crystal 3, Small (less than 1 g) adiabatic calorimetry) of the same molecule?
Answer: 158.89 ± 0.83 J/K/mol

Question: What about the molar heat capacity (215.2 K, Crystal 3, Small (less than 1 g) adiabatic calorimetry) of the same molecule?
Answer: 161.05 ± 0.83 J/K/mol

Question: And the molar heat capacity (215.27 K, Crystal 3, Small (less than 1 g) adiabatic calorimetry)?
Answer: 161.05 ± 0.83 J/K/mol

Question: What about the molar heat capacity (216.55 K, Crystal 3, Small (less than 1 g) adiabatic calorimetry) of the same molecule?
Answer: 163.3 ± 0.83 J/K/mol

Question: What about the molar heat capacity (217.12 K, Crystal 3, Small (less than 1 g) adiabatic calorimetry) of the same molecule?
Answer: 164.54 ± 0.83 J/K/mol

Question: What about the molar heat capacity (217.82 K, Crystal 3, Small (less than 1 g) adiabatic calorimetry) of the same molecule?
Answer: 165.71 ± 0.83 J/K/mol

Question: And the molar heat capacity (219.04 K, Crystal 3, Small (less than 1 g) adiabatic calorimetry)?
Answer: 168.28 ± 0.91 J/K/mol

Question: And the molar heat capacity (219.1 K, Crystal 3, Small (less than 1 g) adiabatic calorimetry)?
Answer: 168.28 ± 0.91 J/K/mol

Question: And the molar heat capacity (220.36 K, Crystal 3, Small (less than 1 g) adiabatic calorimetry)?
Answer: 170.95 ± 0.91 J/K/mol

Question: And the molar heat capacity (220.96 K, Crystal 3, Small (less than 1 g) adiabatic calorimetry)?
Answer: 172.36 ± 0.91 J/K/mol

Question: And the molar heat capacity (221.61 K, Crystal 3, Small (less than 1 g) adiabatic calorimetry)?
Answer: 173.61 ± 0.91 J/K/mol

Question: What about the molar heat capacity (222.86 K, Crystal 3, Small (less than 1 g) adiabatic calorimetry) of the same molecule?
Answer: 176.6 ± 0.91 J/K/mol

Question: What about the molar heat capacity (222.88 K, Crystal 3, Small (less than 1 g) adiabatic calorimetry) of the same molecule?
Answer: 176.77 ± 0.91 J/K/mol

Question: What about the molar heat capacity (224.1 K, Crystal 3, Small (less than 1 g) adiabatic calorimetry) of the same molecule?
Answer: 179.84 ± 0.91 J/K/mol

Question: And the molar heat capacity (224.8 K, Crystal 3, Small (less than 1 g) adiabatic calorimetry)?
Answer: 181.75 ± 0.91 J/K/mol

Question: And the molar heat capacity (225.33 K, Crystal 3, Small (less than 1 g) adiabatic calorimetry)?
Answer: 183.17 ± 0.91 J/K/mol

Question: And the molar heat capacity (226.55 K, Crystal 3, Small (less than 1 g) adiabatic calorimetry)?
Answer: 186.91 ± 0.91 J/K/mol

Question: And the molar heat capacity (226.72 K, Crystal 3, Small (less than 1 g) adiabatic calorimetry)?
Answer: 187.57 ± 0.91 J/K/mol

Question: And the molar heat capacity (227.76 K, Crystal 3, Small (less than 1 g) adiabatic calorimetry)?
Answer: 190.82 ± 1 J/K/mol

Question: What about the molar heat capacity (228.63 K, Crystal 3, Small (less than 1 g) adiabatic calorimetry) of the same molecule?
Answer: 194.14 ± 1 J/K/mol

Question: What about the molar heat capacity (228.97 K, Crystal 3, Small (less than 1 g) adiabatic calorimetry) of the same molecule?
Answer: 195.22 ± 1 J/K/mol

Question: What about the molar heat capacity (230.16 K, Crystal 3, Small (less than 1 g) adiabatic calorimetry) of the same molecule?
Answer: 200.21 ± 1 J/K/mol

Question: And the molar heat capacity (230.54 K, Crystal 3, Small (less than 1 g) adiabatic calorimetry)?
Answer: 202.12 ± 1 J/K/mol

Question: And the molar heat capacity (231.34 K, Crystal 3, Small (less than 1 g) adiabatic calorimetry)?
Answer: 205.78 ± 1 J/K/mol

Question: And the molar heat capacity (232.45 K, Crystal 3, Small (less than 1 g) adiabatic calorimetry)?
Answer: 211.52 ± 1.1 J/K/mol

Question: What about the molar heat capacity (232.51 K, Crystal 3, Small (less than 1 g) adiabatic calorimetry) of the same molecule?
Answer: 211.69 ± 1.1 J/K/mol

Question: What about the molar heat capacity (233.67 K, Crystal 3, Small (less than 1 g) adiabatic calorimetry) of the same molecule?
Answer: 218.01 ± 1.1 J/K/mol

Question: And the molar heat capacity (234.36 K, Crystal 3, Small (less than 1 g) adiabatic calorimetry)?
Answer: 222.33 ± 1.1 J/K/mol

Question: What about the molar heat capacity (234.81 K, Crystal 3, Small (less than 1 g) adiabatic calorimetry) of the same molecule?
Answer: 225.16 ± 1.1 J/K/mol

Question: What about the molar heat capacity (235.93 K, Crystal 3, Small (less than 1 g) adiabatic calorimetry) of the same molecule?
Answer: 233.22 ± 1.2 J/K/mol

Question: And the molar heat capacity (236.25 K, Crystal 3, Small (less than 1 g) adiabatic calorimetry)?
Answer: 235.72 ± 1.2 J/K/mol

Question: And the molar heat capacity (237.04 K, Crystal 3, Small (less than 1 g) adiabatic calorimetry)?
Answer: 242.28 ± 1.2 J/K/mol

Question: And the molar heat capacity (238.14 K, Crystal 3, Small (less than 1 g) adiabatic calorimetry)?
Answer: 251.85 ± 1.2 J/K/mol and 251.6 ± 1.2 J/K/mol

Question: And the molar heat capacity (239.22 K, Crystal 3, Small (less than 1 g) adiabatic calorimetry)?
Answer: 261.49 ± 1.2 J/K/mol

Question: And the molar heat capacity (240.04 K, Crystal 3, Small (less than 1 g) adiabatic calorimetry)?
Answer: 267.14 ± 1.2 J/K/mol

Question: What about the molar heat capacity (240.28 K, Crystal 3, Small (less than 1 g) adiabatic calorimetry) of the same molecule?
Answer: 268.64 ± 1.2 J/K/mol

Question: What about the molar heat capacity (241.32 K, Crystal 3, Small (less than 1 g) adiabatic calorimetry) of the same molecule?
Answer: 272.38 ± 1.3 J/K/mol

Question: What about the molar heat capacity (241.94 K, Crystal 2) of the same molecule?
Answer: 272.22 ± 5.2 J/K/mol

Question: And the molar heat capacity (242.37 K, Crystal 2)?
Answer: 270.55 ± 5.2 J/K/mol

Question: What about the molar heat capacity (243.42 K, Crystal 2) of the same molecule?
Answer: 261.16 ± 5 J/K/mol

Question: And the molar heat capacity (243.89 K, Crystal 2)?
Answer: 258.16 ± 4.9 J/K/mol

Question: What about the molar heat capacity (244.49 K, Crystal 2) of the same molecule?
Answer: 249.93 ± 4.8 J/K/mol

Question: What about the molar heat capacity (245.89 K, Crystal 2) of the same molecule?
Answer: 240.12 ± 4.7 J/K/mol

Question: And the molar heat capacity (247.88 K, Crystal 2)?
Answer: 229.23 ± 4.5 J/K/mol

Question: And the molar heat capacity (249.84 K, Crystal 2)?
Answer: 225.07 ± 4.4 J/K/mol

Question: What about the molar heat capacity (251.78 K, Crystal 2) of the same molecule?
Answer: 223.16 ± 4.4 J/K/mol

Question: What about the molar heat capacity (253.73 K, Crystal 2) of the same molecule?
Answer: 223.33 ± 4.4 J/K/mol

Question: And the molar heat capacity (255.66 K, Crystal 2)?
Answer: 225.49 ± 4.4 J/K/mol

Question: And the molar heat capacity (257.59 K, Crystal 2)?
Answer: 226.9 ± 4.4 J/K/mol

Question: What about the molar heat capacity (259.52 K, Crystal 2) of the same molecule?
Answer: 229.98 ± 4.5 J/K/mol

Question: What about the molar heat capacity (261.45 K, Crystal 2) of the same molecule?
Answer: 233.3 ± 4.6 J/K/mol

Question: And the molar heat capacity (263.38 K, Crystal 2)?
Answer: 237.13 ± 4.6 J/K/mol

Question: And the molar heat capacity (265.31 K, Crystal 2)?
Answer: 241.62 ± 4.7 J/K/mol

Question: And the molar heat capacity (267.23 K, Crystal 2)?
Answer: 247.19 ± 4.7 J/K/mol
